Assay results published in ChEMBL document CHEMBL3860106, “Identification of the Binding Site of Chroman-4-one-Based Sirtuin 2-Selective Inhibitors using Photoaffinity Labeling in Combination with Tandem Mass Spectrometry” (J Med Chem, 2016).
pIC50: −log10 of the molar value. Active and inactive are the calls of the source. No cut-off for these calls is given here.

What was measured:
[1] = Drug metabolism assessed as compound formation using compound 4 irradiated with 365 nm 23 mW/cm2 UV light using high-power light-emitting diode by UV/vis spectroscopy; format: ADME
[2] = target: T1, NAD-dependent protein deacetylase sirtuin-2 (Homo sapiens) (UniProt Q8IXJ6); assay: Binding affinity to recombinant SIRT2 (unknown origin) assessed as photoaffinity labeling at H187 residue at 400 uM in presence of NAD+ and peptide substrate by LC-MS/MS method
T1 sequence (whole entry): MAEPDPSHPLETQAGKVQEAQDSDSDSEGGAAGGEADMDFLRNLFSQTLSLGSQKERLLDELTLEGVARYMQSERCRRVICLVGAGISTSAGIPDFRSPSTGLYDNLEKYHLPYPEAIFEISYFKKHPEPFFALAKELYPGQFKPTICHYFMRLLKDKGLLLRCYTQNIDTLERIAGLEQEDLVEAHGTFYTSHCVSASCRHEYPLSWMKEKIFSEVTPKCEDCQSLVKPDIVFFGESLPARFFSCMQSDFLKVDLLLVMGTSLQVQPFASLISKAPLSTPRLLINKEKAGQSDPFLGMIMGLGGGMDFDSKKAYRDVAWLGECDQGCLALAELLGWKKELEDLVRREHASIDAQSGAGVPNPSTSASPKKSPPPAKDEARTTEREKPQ

[3] = target: T2, NAD-dependent protein deacetylase sirtuin-2 (Homo sapiens, UniProt Q8IXJ6); assay: Inhibition of SIRT2 (unknown origin) by fluorescence-based assay
T2 sequence (Q8IXJ6 whole entry): T1 sequence (whole entry)

[4] = Photo activation assessed as [photo-decomposition irradiated with 365 nm 23 mW/cm2 UV light using high-power light-emitting diode by 1H and 19F NMR spectroscopy; format: physicochemical
[5] = target: T1, NAD-dependent protein deacetylase sirtuin-2 (Homo sapiens); assay: Binding affinity to recombinant SIRT2 (unknown origin) assessed as detection of tryptic peptide with amino acid sequence 175-IAGLEQEDLVEAHGTFYTSHCVSASCRHEYPLSWMK-210 at 400 uM in presence of NAD+ and peptide substrate by LC-MS/MS method
[6] = target: T1, NAD-dependent protein deacetylase sirtuin-2 (Homo sapiens); assay: Inhibition of SIRT2 (unknown origin) at 200 uM by fluorescence-based assay

Drug uptake [1]	Activity [2]	pIC50 [3]	Drug metabolism [4]	Activity [5]	inhibition [6] [%]	SMILES
Metabolite_Detected	–	–	–	–	–	CCCCCC1CC(=O)c2cc(C(=[N+]=[N-])C(F)(F)F)ccc2O1 (configuration not stated)
–	Active	5.09	Metabolite_Detected	Active	78	CCCCCC1CC(=O)c2cc(C3(C(F)(F)F)N=N3)ccc2O1 (configuration not stated)
–	–	–	–	–	51	CCCCCC1CC(=O)c2cc(N=[N+]=[N-])ccc2O1 (configuration not stated)
